Measured values from PubChem BioAssay AID1259407 (Chemical Carcinogenesis Research Information System (CCRIS), 2018).
Active and inactive are the calls of the source. How the calls were made is not given here.

System: CCRIS mutagenicity, Ames/micronucleus/aberration tests
Experiment: CCRIS mutagenicity studies
[1] = Test System: AMES SALMONELLA TYPHIMURIUM, Strain/Indicator: TA98, Metabolic Activation: NONE, Method: STANDARD PLATE
[2] = Test System: AMES SALMONELLA TYPHIMURIUM, Strain/Indicator: TA100, Metabolic Activation: NONE, Method: STANDARD PLATE

Measured: mutagenic call

CC(=O)c1oc([N+](=O)[O-])c(-c2ccccc2)c1-c1ccccc1
inactive: Test System: AMES SALMONELLA TYPHIMURIUM, Strain/Indicator: TA98(NR), Metabolic Activation: NONE, Method: STANDARD PLATE inactive; negative | Test System: AMES SALMONELLA TYPHIMURIUM, Strain/Indicator: TA100(NR), Metabolic Activation: NONE, Method: STANDARD PLATE inactive; negative
active: [1] active; positive | [2] active; positive

Fc1cc(F)c2ncccc2c1F
active: Test System: AMES SALMONELLA TYPHIMURIUM, Strain/Indicator: TA100, Metabolic Activation: RAT LIVER S-9, PHENOBARBITAL AND 5,6-BENZOFLAVONE, Method: PREINCUBATION active; positive

O=[N+]([O-])c1ccc2c(c1)Oc1ccccc1O2
inactive: Test System: AMES SALMONELLA TYPHIMURIUM, Strain/Indicator: TA98(NR), Metabolic Activation: NONE, Method: SUSPENSION inactive; negative | Test System: AMES SALMONELLA TYPHIMURIUM, Strain/Indicator: TA100, Metabolic Activation: NONE, Method: PREINCUBATION inactive; negative | Test System: AMES SALMONELLA TYPHIMURIUM, Strain/Indicator: TA100, Metabolic Activation: NONE, Method: SUSPENSION inactive; negative | Test System: AMES SALMONELLA TYPHIMURIUM, Strain/Indicator: TA100, Metabolic Activation: RAT, LIVER, S-9, PCB (5%), Method: PREINCUBATION inactive; negative | Test System: AMES SALMONELLA TYPHIMURIUM, Strain/Indicator: TA100, Metabolic Activation: RAT, LIVER, S-9, PCB, Method: SUSPENSION inactive; negative
active: Test System: AMES SALMONELLA TYPHIMURIUM, Strain/Indicator: TA98(1,8-DNP6), Metabolic Activation: NONE, Method: PREINCUBATION active; positive | Test System: AMES SALMONELLA TYPHIMURIUM, Strain/Indicator: TA98(1,8-DNP6), Metabolic Activation: NONE, Method: SUSPENSION active; positive | Test System: AMES SALMONELLA TYPHIMURIUM, Strain/Indicator: TA98(1,8-DNP6), Metabolic Activation: RAT, LIVER, S-9, PCB (5%), Method: PREINCUBATION active; positive | Test System: AMES SALMONELLA TYPHIMURIUM, Strain/Indicator: TA98(NR), Metabolic Activation: RAT, LIVER, S-9 (15%), Method: PREINCUBATION active; positive | Test System: AMES SALMONELLA TYPHIMURIUM, Strain/Indicator: TA98(NR), Metabolic Activation: RAT, LIVER, S-9, 3-METHYLCHOLANTHRENE (15%), Method: PREINCUBATION active; positive | Test System: AMES SALMONELLA TYPHIMURIUM, Strain/Indicator: TA98(NR), Metabolic Activation: RAT, LIVER, S-9, BETA-NAPHTHOFLAVONE (15%), Method: PREINCUBATION active; positive | Test System: AMES SALMONELLA TYPHIMURIUM, Strain/Indicator: TA98(NR), Metabolic Activation: RAT, LIVER, S-9, PCB (5 OR 15%), Method: PREINCUBATION active; positive | Test System: AMES SALMONELLA TYPHIMURIUM, Strain/Indicator: TA98(NR), Metabolic Activation: RAT, LIVER, S-9, PHENOBARBITAL (15%), Method: PREINCUBATION active; positive | Test System: AMES SALMONELLA TYPHIMURIUM, Strain/Indicator: TA98, Metabolic Activation: NONE, Method: PREINCUBATION active; positive | [1] active; positive | Test System: AMES SALMONELLA TYPHIMURIUM, Strain/Indicator: TA98, Metabolic Activation: NONE, Method: SUSPENSION active; positive | Test System: AMES SALMONELLA TYPHIMURIUM, Strain/Indicator: TA98, Metabolic Activation: RAT, LIVER, S-9, AROCLOR, Method: STANDARD PLATE active; positive | Test System: AMES SALMONELLA TYPHIMURIUM, Strain/Indicator: TA98, Metabolic Activation: RAT, LIVER, S-9, PCB (5%), Method: PREINCUBATION active; positive | Test System: AMES SALMONELLA TYPHIMURIUM, Strain/Indicator: TA98, Metabolic Activation: RAT, LIVER, S-9, PCB, Method: SUSPENSION active; positive | [2] active; positive | Test System: AMES SALMONELLA TYPHIMURIUM, Strain/Indicator: TA100, Metabolic Activation: RAT, LIVER, S-9, AROCLOR, Method: STANDARD PLATE active; positive

CCC[CH2][Sn]=[O]
inactive: Test System: AMES SALMONELLA TYPHIMURIUM, Strain/Indicator: TA98, Metabolic Activation: NONE, Method: SUSPENSION/PLATE inactive; negative | Test System: AMES SALMONELLA TYPHIMURIUM, Strain/Indicator: TA100, Metabolic Activation: NONE, Method: SUSPENSION/PLATE inactive; negative

N[C@@H](Cc1cc(I)c(Oc2cc(I)c(O)c(I)c2)c(I)c1)C(=O)O
inactive: End Point: In vitro micronucleus, Test System: Human peripheral blood lymphocytes, Metabolic Activation: None inactive; negative

OC1C[C@]23C=CC=C[C@@]2(C1)O3 (some centres not stated)
active: Test System: AMES SALMONELLA TYPHIMURIUM, Strain/Indicator: TM677/8-AZAGUANINE, Metabolic Activation: NONE, Method: STANDARD PLATE active; positive
inactive: [1] inactive; negative | [2] inactive; negative
